Reference: patent US20090325959A1 (priority 2008, published 2009)
Where two headings read alike, the source gives them in different places.

Columns and labels:
[1] = biological target: T1, ROCK2 (Homo sapiens, UniProt O75116); assay: Rho kinase inhibition assay (IMAP fluorescence polarization), ROCK2; format: biochemical;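 note: kinase reaction started with 10 µM ATP and run 60 min at room temperature, then phosphorylated substrate captured on IMAP beads for 30 min and fluorescence polarization read in mP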
T1 construct: purchased Upstate/Chemicon 14-451
T1 sequence (O75116 11-552 limits assumed): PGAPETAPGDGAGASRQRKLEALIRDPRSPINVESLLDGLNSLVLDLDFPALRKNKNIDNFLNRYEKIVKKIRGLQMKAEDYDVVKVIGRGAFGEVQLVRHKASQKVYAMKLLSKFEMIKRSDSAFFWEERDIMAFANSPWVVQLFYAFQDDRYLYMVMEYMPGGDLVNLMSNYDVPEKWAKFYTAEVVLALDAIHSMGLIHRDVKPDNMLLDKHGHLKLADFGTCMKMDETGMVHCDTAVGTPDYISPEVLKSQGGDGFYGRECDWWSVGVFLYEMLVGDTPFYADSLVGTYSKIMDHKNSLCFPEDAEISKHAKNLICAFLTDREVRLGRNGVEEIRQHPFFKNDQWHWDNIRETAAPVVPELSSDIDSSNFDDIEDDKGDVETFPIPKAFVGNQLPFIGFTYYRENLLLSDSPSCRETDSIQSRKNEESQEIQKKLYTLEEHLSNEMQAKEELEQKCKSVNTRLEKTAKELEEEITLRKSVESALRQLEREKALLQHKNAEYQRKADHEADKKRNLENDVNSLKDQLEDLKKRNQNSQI
Protocol: (§1) Following the pre-incubation, 10 μM ATP was added to initiate the reaction. After 60 minutes at room temperature, Molecular Devices IMAP™ binding solution was added to bind phosphorylated substrate. After 30 minutes of incubation in the presence of the IMAP™ beads, the fluorescence polarization was read and the ratio was reported as mP. IC50 values for compounds and EC50 values for ATP were calculated using the Prism software from Graphpad.

[2] = biological target: T2, p70S6K human enzyme (Homo sapiens, UniProt P23443, T412E); assay: p70S6K inhibition assay (IMAP FP); format: biochemical;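 note: kinase reaction run at room temperature, phosphorylated substrate captured on IMAP beads and read as fluorescence polarization in mP, IC50 then converted to Ki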
T2 construct: purchased Upstate Chemicon 14-486
T2 sequence (P23443 1-421 T412E limits assumed): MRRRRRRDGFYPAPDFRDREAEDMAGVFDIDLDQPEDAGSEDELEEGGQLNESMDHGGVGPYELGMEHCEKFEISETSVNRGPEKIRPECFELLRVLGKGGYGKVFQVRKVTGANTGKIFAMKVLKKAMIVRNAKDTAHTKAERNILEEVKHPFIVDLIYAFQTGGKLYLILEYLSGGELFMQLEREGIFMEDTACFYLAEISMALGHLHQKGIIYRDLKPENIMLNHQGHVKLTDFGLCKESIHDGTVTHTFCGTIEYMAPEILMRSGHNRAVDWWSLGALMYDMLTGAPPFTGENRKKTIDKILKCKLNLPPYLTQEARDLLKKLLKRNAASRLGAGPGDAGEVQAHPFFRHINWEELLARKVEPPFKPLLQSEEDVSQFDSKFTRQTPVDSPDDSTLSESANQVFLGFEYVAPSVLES
Protocol: Inhibition of Akt3 and p70S6K activity was determined using the IMAP™ FP Progressive Binding Kit (Molecular Devices product number R8127). […] Following the pre-incubation, 30 μM ATP was added to initiate the reaction. After 60 minutes at RT, Molecular Devices IMAP™ binding solution was added to bind phosphorylated substrate. After 30 minutes of incubation in the presence of the IMAP™ beads the fluorescence polarization was read and the ratio was reported as mP. IC50 results were calculated using the Prism software from Graphpad. The Ki values were determined according to the following formula: Ki=IC50/(1+([ATP Challenge]/EC50 ATP)).

[3] = biological target: T3, Akt3 human enzyme (Homo sapiens, UniProt Q9Y243); assay: Akt3 inhibition assay (IMAP FP); format: biochemical;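 note: kinase reaction run 60 min at room temperature after 30 µM ATP start, phosphorylated substrate captured on IMAP beads and read as fluorescence polarization (mP)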
T3 construct: purchased Upstate Chemicon 14-502
T3 sequence (Q9Y243 whole entry): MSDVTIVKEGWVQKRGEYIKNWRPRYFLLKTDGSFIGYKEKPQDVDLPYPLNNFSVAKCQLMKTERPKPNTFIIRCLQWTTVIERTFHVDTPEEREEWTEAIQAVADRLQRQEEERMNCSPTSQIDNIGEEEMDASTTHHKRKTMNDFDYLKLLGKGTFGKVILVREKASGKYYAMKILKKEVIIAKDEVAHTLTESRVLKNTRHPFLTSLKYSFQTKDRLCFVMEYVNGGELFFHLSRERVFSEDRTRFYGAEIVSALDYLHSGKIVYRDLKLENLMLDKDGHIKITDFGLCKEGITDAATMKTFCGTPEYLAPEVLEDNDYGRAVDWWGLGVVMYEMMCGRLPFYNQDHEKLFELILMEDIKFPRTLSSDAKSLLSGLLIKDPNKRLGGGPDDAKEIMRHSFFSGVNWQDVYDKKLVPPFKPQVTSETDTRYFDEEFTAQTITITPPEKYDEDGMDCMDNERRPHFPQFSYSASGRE

[4] = Compound plasma concentrations in unsensitized mice at 15 min post administration; format: in vivo; conditions: mouse, 15 μmol/kg; mean compound plasma concentration in mice at 15 minutes post oral administration; read-out: Mouse Oral PK
[5] = tested on: human neutrophils; assay: Human neutrophil chemotaxis induced by fMLP (modified Boyden chamber); format: cell-based
Source text: This assay is an in vitro assay of neutrophil chemotaxis that can be used to evaluate the ability of Rho Kinase inhibitor compounds of Formula I or II to inhibit the migration of human neutrophils, an inflammatory cell that has been implicated in the pathophysiology of allergic conjunctivitis.
Peripheral blood from healthy human volunteers was collected and the neutrophils were isolated by Ficoll-paque density centrifugation followed by dextran sedimentation and hypotonic lysis of the red blood cells. Neutrophil chemotaxis was assessed using a modified Boyden Chamber (Neuroprobe, 96-well) with a 3 μm pore polycarbonate membrane. The ability of the tested compounds to block chemotaxis induced by a 1 μM fMLP challenge during a one hour incubation at 37° C. with 5% CO2 was assessed in a dose response manner.

[6] = Rat oral pharmacokinetics (plasma); format: in vivo; conditions: 20-30 μmol/kg; for half-life: mean n = 3, read-out: t½ (converted)
Protocol: Plasma (EDTA K2 anticoagulant) was collected from male, cannulated, CD Sprague Dawley rats to determine the pharmacokinetics of formulations containing compound inhibitors of Rho kinase. Each animal was dosed orally with a 4 ml/kg solution or suspension of each test compound in 10 mM acetate buffered saline, pH 4.5 at a final concentration range of 20-30 μmol/kg. Blood was collected at 0.25, 0.5, 1, 2, 4, 6, 8, and 24 hours. Plasma samples were assayed for the concentration of the test compound using an on-line, solid phase extraction LC/MS/MS analysis system.
Samples were analyzed on a QSTAR Elite, hybrid quadrupole time-of-flight mass spectrometer (Applied Biosystems, Framingham, Mass.) coupled with a Symbiosis Pharma integrated, on-line SPE-HPLC system (Spark Holland Inc., Plainsboro, N.J.). Analyst QS 2.0 software was used for instrument control, data acquisition and processing. […] Mobile Phase A consisted of 0.1% ammonium hydroxide in water and Mobile Phase B consisted of 0.1% formic acid in acetonitrile. Pharmacokinetic analyses were performed using WinNonlin software version 5.2 (Pharsight Corporation, Mountain View, Calif.).
As determined from the plasma concentration versus time curves, the time to peak and peak exposure are represented by the values Tmax and Cmax, respectively. The AUC values (nM*hr) shown were calculated as the areas under the plasma concentration versus time curves from time zero through the time of the last observable value and represent the total exposure of the compound over the course of the study. Half-life values or the amount of time required for the plasma levels of the compound to decline to half the initial value are represented as t½.

[7] = tested on: A-10 rat thoracic aorta cells; assay: PDGF-stimulated smooth muscle cell proliferation assay (BrdU incorporation); format: cell-based; conditions: A-10 cells, 10 ng/mL PDGF, BrdU incorporation, percent of total challenge-stimulated proliferation; for Percent of PDGF Induced Proliferation at 1 μM Avg: 1 μM test compound; for Percent of PDGF Induced Proliferation at 10 μM Avg: 10 μM test compound;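 for all read-outs here: cells kept in serum-free medium, BrdU allowed to incorporate for 24 h, then incorporated label detected fluorometrically with an anti-BrdU antibody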
Protocol: Effects on cell proliferation were measured using a bromodeoxyuridine (BrdU) incorporation assay. […] Serum free media containing 01% BSA was added to the cells. 24 hours later the media was removed and replaced with warmed serum free media. […] Proliferation was then monitored using the BrdU Cell Proliferation Assay, HTS (Calbiochem cat. #t HTS01). BrdU was allowed to incorporate into cells for 24 hours prior to the addition of fixative/denaturing solution and the fluorometric detection of incorporated BrdU using a BrdU antibody as per manufacturer's directions. Data are reported as a percent of the PDGF-stimulated BrdU incorporation.

[8] = biological target: T4, ROCK1 (Homo sapiens, UniProt Q13464); assay: Rho kinase inhibition assay (IMAP fluorescence polarization), ROCK1; format: biochemical;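 note: kinase reaction run 60 min at room temperature, then phosphorylated substrate captured on IMAP beads for 30 min, with fluorescence polarization read in mP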
T4 construct: purchased Upstate/Chemicon 14-601
T4 sequence (Q13464 17-535 limits assumed): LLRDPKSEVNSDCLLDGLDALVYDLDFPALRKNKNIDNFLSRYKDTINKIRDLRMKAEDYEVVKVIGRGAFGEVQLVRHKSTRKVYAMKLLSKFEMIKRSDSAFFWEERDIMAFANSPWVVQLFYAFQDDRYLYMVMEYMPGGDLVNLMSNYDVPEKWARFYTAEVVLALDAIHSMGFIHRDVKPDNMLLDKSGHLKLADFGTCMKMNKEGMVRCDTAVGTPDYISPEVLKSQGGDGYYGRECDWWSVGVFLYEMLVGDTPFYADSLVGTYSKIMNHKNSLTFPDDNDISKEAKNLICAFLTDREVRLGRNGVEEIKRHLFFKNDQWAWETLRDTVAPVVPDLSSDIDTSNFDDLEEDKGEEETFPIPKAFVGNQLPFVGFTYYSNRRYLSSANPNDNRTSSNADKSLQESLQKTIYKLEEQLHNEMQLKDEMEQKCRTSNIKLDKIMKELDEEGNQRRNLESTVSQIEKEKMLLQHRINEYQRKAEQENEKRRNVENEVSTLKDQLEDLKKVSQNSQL
Protocol: as §1

[9] = 10 μM ATP, read-out: ROCK2 Ki, Avg
[10] = 30 μM ATP, Ki=IC50/(1+([ATP Challenge]/EC50 ATP)), read-out: p70S6K Ki, Avg
[11] = average Ki, read-out: p70S6K Ki
[12] = 30 μM ATP, Ki=IC50/(1+([ATP Challenge]/EC50 ATP)), read-out: Akt3 Ki, Avg
[13] = Neutrophil, 1 h, 1 μM fMLP challenge, one hour, read-out: Chemotaxis Avg. IC50
[14] = average IC50 for inhibition of fMLP-induced neutrophil chemotaxis, read-out: Chemotaxis IC50
[15] = male, CD Sprague Dawley, mean n = 3
[16] = male, CD Sprague Dawley, mean n = 3, read-out: Cmax
[17] = male, CD Sprague Dawley, mean n = 3, read-out: Tmax

Structure (SMILES)	Ki [1, 9] [nM]	Ki ([1]; average Ki, read-out: ROCK2 Ki) [nM]	Ki [2, 10] [nM]	Ki [2, 11] [nM]	Ki [3, 12] [nM]	Ki ([3]; average Ki, read-out: Akt3 Ki) [nM]	concentration at 15 min [4] [nM]	IC50 [5, 13] [nM]	IC50 [5, 14] [nM]	Vz_F ([6]; mean n = 3)	AUC(0-t) [6, 15] [µM·h]	Cmax [6, 16] [nM]	Tmax [6, 17] [h]	half-life ([6]; male, CD Sprague Dawley) [h]	Percent of PDGF Induced Proliferation at 1 μM Avg [7] [%]	Percent of PDGF Induced Proliferation at 10 μM Avg [7] [%]	Ki ([8]; Avg, 10 μM ATP) [nM]	Ki ([8]; average Ki) [nM]	other results
CCS(=O)(=O)Nc1cccc(CN2CCC[C@H](Nc3ccc4[nH]ncc4c3)C2)c1 [Compound 1.124, (S)-N-(3-((3-(1H-indazol-5-ylamino)piperidin-1-yl)methyl)phenyl)ethanesulfonamide]	3.3	3.3	3330	3330	7870	7870	118	3400	3400	93.4 L/kg	0.535	415	0.5	1.39	68.5	61.6	64.5	64.5	
Cc1ccc(CN2CC[C@@H](Nc3cccc4cnccc34)C2)cc1 [Compound 2.025, (R)-N-(1-(4-methylbenzyl)pyrrolidin-3-yl)isoquinolin-5-amine]	2.9	2.9	499	499	966	966	74	1650	1700						69.8	68.0	6.9	6.9	
CCc1ccc(CN2CCC[C@@H](Nc3ccc4[nH]ncc4c3)C2)cc1 [Compound 1.136, (R)-N-(1-(4-ethylbenzyl)piperidin-3-yl)-1H-indazol-5-amine]	5.4	5.1	1240	1240	290	290		2600	2600	BLQ							40.3	25.8	AUC (0-last) ([6]; mean n = 3): BLQ; Cmax ([6]; mean n = 3): BLQ; Tmax ([6]; mean n = 3): BLQ; t½ ([6]; mean n = 3): BLQ
OCCOc1cccc(CN2CCC[C@@H](Nc3cccc4cnccc34)C2)c1 [Compound 2.034, (R)-2-(3-((3-(isoquinolin-5-ylamino)piperidin-1-yl)methyl)phenoxy)ethanol]	221							4730									1000		
CCS(=O)(=O)Nc1cccc(CN2CCC[C@@H](Nc3ccc4[nH]ncc4c3)C2)c1 [Compound 1.123, (R)-N-(3-((3-(1H-indazol-5-ylamino)piperidin-1-yl)methyl)phenyl)ethanesulfonamide]	9.6	9.6	2810	2810	2410	2410	71	3050	3100	14.8 L/kg	2.06	2040	0.33	0.9			82.3	82.3	
CS(=O)(=O)Nc1cccc(CN2CC[C@H](Nc3cccc4cnccc34)C2)c1 [Compound 2.035, (S)-N-(3-((3-(isoquinolin-5-ylamino)pyrrolidin-1-yl)methyl)phenyl)methanesulfonamide]	202							6600									601		
CS(=O)(=O)Nc1cccc(CN2CCC(Nc3ccc4[nH]ncc4c3)C2)c1 (centres unmarked) [Compound 1.087, N-(3-((3-(1H-indazol-5-ylamino)pyrrolidin-1-yl)methyl)phenyl)methanesulfonamide]	15.4							4500									84.1		
Cc1ccc(CN2CCC[C@H](Nc3cccc4cnccc34)C2)cc1 [Compound 2.045, (S)-N-(1-(4-methylbenzyl)piperidin-3-yl)isoquinolin-5-amine]	88									226 L/kg	0.456	223	0.67	1.59			90.6		
C[C@@H](N)c1ccc(C(=O)Nc2ccnc3[nH]ccc23)cc1 [Compound Y-39983, reference compound]								1390											
OCCOc1cccc(CN2CCC[C@H](Nc3cccc4cnccc34)C2)c1 [Compound 2.036, (S)-2-(3-((3-(isoquinolin-5-ylamino)piperidin-1-yl)methyl)phenoxy)ethanol]	233							2770									579		
OCCn1ccc2ccc(CN3CCC[C@@H](Nc4ccc5[nH]ncc5c4)C3)cc21 [Compound 1.108, (R)-2-(6-((3-(1H-indazol-5-ylamino)piperidin-1-yl)methyl)-1H-indol-1-yl)ethanol]	6.5	6.5	511	511	205	205	395			116 L/kg	0.415	209	0.83	1.36	83.1	43.7	25.6	25.6	
c1cc(C2CC2)ccc1CN1CCC[C@@H](Nc2ccc3[nH]ncc3c2)C1 [Compound 1.206, (R)-N-(1-(4-cyclopropylbenzyl)piperidin-3-yl)-1H-indazol-5-amine]	9.1	9.1	314	314	529	529	672								77.5	51.1	64.4	64.4	
NC(=O)Cn1ccc2ccc(CN3CCC[C@H](Nc4ccc5[nH]ncc5c4)C3)cc21 [Compound 1.107, (S)-2-(6-((3-(1H-indazol-5-ylamino)piperidin-1-yl)methyl)-1H-indol-1-yl)acetamide]	14		3360		16300					36.3 L/kg	1.59	544	1.67	1.28			234		
c1ccc(CN2CC[C@@H](Nc3cccc4cnccc34)C2)cc1 [Compound 2.046, (R)-N-(1-benzylpyrrolidin-3-yl)isoquinolin-5-amine]	5.6	5.6	759	759	1980	1980	488								57.4	32.1	16.7	16.7	
COc1ccc(CN2CC[C@@H](Nc3cccc4cnccc34)C2)cc1 [Compound 2.047, (R)-N-(1-(4-methoxybenzyl)pyrrolidin-3-yl)isoquinolin-5-amine]	7	7	437	437	1940	1940	3								65.3	53.8	26.4	26.4	
c1cc2cc(CN3CCC[C@@H](Nc4ccc5[nH]ncc5c4)C3)ccc2s1 [Compound 1.138, (R)-N-(1-(benzo[b]thiophen-5-ylmethyl)piperidin-3-yl)-1H-indazol-5-amine]	7.2	6.3	444	444	91.3	91.3	1860	1850	1900						46.3	27.0	36.3	41.1	
OCCOc1cccc(CN2CC[C@@H](Nc3cccc4cnccc34)C2)c1 [Compound 2.039, (R)-2-(3-((3-(isoquinolin-5-ylamino)pyrrolidin-1-yl)methyl)phenoxy)ethanol]	6.7	6.7	1010	1010	1990	1990	92	1640	1600	59.4 L/kg	0.905	783	0.33	1.13			18.8	18.8	
O=S(=O)(c1cccc2cnccc12)N1CCCNCC1 [fasudil, reference compound]								23800											
